# Where a name gives a salt, the structure may show the parent alone.
# Experiments:
# Human renin = target: T1, Human renin (Homo sapiens, UniProt P00797); assay: Human renin inhibition; angiotensin I formed from angiotensinogen quantified by EIA; conditions: for inhibition at 0.1 µM: read-out: Human renin inhibitory activity, inhibitory activity (%) at 0.1 μM; for Human renin inhibitory activity, inhibitory activity (%) at 0.1 μM: 0.1 μM test compound, substrate human angiotensinogen, 37° C. 30 min
# T1 sequence (P00797 67-406): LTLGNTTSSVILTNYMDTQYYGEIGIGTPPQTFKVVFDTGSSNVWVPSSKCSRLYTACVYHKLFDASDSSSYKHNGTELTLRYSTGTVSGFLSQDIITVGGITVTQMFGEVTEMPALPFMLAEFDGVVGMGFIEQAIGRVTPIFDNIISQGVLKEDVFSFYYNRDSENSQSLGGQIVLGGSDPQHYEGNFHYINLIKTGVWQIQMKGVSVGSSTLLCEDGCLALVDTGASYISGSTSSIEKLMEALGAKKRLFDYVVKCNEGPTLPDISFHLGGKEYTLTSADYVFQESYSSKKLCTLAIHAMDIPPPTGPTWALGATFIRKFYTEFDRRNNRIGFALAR
# Protocol: As a substrate for renin activity measurement, the angiotensinogen mentioned in (5) above was used. 1 μl each of the test compound (containing 100% DMSO) was added to each well of a 384-well plate (ABgene). Renin was diluted with a buffer solution for reaction (20 mM sodium phosphate (pH 7.4)) to a concentration of 57 pM, and 14 μl each of the dilution was added to each well. The dilution was left to stand at 37° C. for 10 min, and then 5 μl of each of a 6 μM solution of substrate angiotensinogen was added to each well to initiate the reaction. […] The amount of angiotensin I produced by an enzyme reaction was quantified by Enzyme Immuno Assay (EIA) described below.
# Anti-angiotensin I antibody (Peninsula Laboratories Inc.) diluted 5,000-fold with PBS was added to each well of a 384 well black plate (Nalge Nunc International Co., Ltd.) by 25 μl, and left standing overnight at 4° C. to immobilize the antibody in the plate. The antibody solution was removed, PBS solution (100 μl) containing 1% BSA was added to each well, and the mixture was left standing at room temperature for 2 hr for blocking. The blocking solution was removed, and each well was washed 5 times with 100 μl of 0.05% Tween20-PBS. […] Then, a biotinated angiotensin I solution (AnaSpec, 15 μl) prepared to 1.6 nM with a buffer [20 mM tris-hydrochloric acid (pH 7.4), 150 mM sodium chloride, 0.01% BSA, 0.05% Tween20] was added to each well, mixed with a plate mixer and left standing at room temperature for 1 hr. The solutions were removed from each well, and each well was washed 5 times with 100 μl of 0.05% Tween20-PBS. Horseradish peroxydase Streptavidin (PIERCE Biotechnology inc., 25 μl) diluted to 100 ng/ml with a buffer [20 mM tris-hydrochloric acid (pH 7.4), 150 mM sodium chloride, 0.1% BSA, 0.05% Tween 20] was added to each well and the mixture was left standing at room temperature for 30 min. The solutions were removed from each well, and each well was washed 5 times with 100 μl of 0.05% Tween20-PBS. SuperSignal ELISA femto Maximum Sensitivity Substrate (PIERCE Biotechnology Inc.) was added by 25 μl and luminescence intensity was measured by EnVision (Perkin Elmer Inc.). An analytical curve was drawn from the luminescence intensity of wells containing an angiotensin I standard solution, and the amount of angiotensin I produced by an enzyme reaction was calculated and used as an index of renin activity.
# plasma renin activity = assay: Ex vivo plasma renin activity (PRA) test after oral administration; assay type: in vivo, Macaca fascicularis; conditions: for inhibition at 1 mg/kg: Macaca fascicularis, po, 4 h, read-out: Macaca fascicularis plasma renin activity, PPA inhibitory activity (%, n = 3-7); for Macaca fascicularis plasma renin activity, PPA inhibitory activity (%, n = 3-7): male macaca fascicularis, 1 mg/kg orally in 0.5% methylcellulose, plasma 4 hr after administration, amended with vehicle group
# Protocol: Male macaca fascicularis was used. […] PRA was calculated by the following formula.
Compound,inhibition at 0.1 µM (Human renin) [%],inhibition at 1 mg/kg (plasma renin activity) [%],other results
"COCCCCn1c(C(=O)N(CC(C)C)[C@@H]2CNC[C@H](C(=O)N3CCOCC3)C2)nc2ccc(F)cc21 [Example 12, 6-fluoro-1-(4-methoxybutyl)-N-(2-methylpropyl)-N-[(3S,5R)-5-(morpholin-4-ylcarbonyl)piperidin-3-yl]-1H-benzimidazole-2-carboxamide dihydrochloride]",97,,
"COCCCCn1c(C(=O)N(CC(C)C)[C@@H]2CNC[C@H](C(=O)N3CCOCC3)C2)nc2ccc(OC)cc21 [Example 60, 6-methoxy-1-(4-methoxybutyl)-N-(2-methylpropyl)-N-{(3S,5R)-5-(morpholin-4-ylcarbonyl)piperidin-3-yl}-1H-benzimidazole-2-carboxamide dihydrochloride]",,85,
"COCCCCn1c(C(=O)N(CC(C)C)[C@@H]2CNC[C@H](C(=O)N3CCOCC3)C2)cc2ccccc21 [Example 3, 1-(4-methoxybutyl)-N-(2-methylpropyl)-N-[(3S,5R)-5-(morpholin-4-ylcarbonyl)piperidin-3-yl]-1H-indole-2-carboxamide hydrochloride]",96,,
"COCCCCn1c(C(=O)N(CC(C)C)[C@@H]2CNC[C@H](C(=O)N3CCCC3)C2)nc2cc(F)ccc21 [Example 18, 5-fluoro-1-(4-methoxybutyl)-N-(2-methylpropyl)-N-[(3S,5R)-5-(pyrrolidin-1-ylcarbonyl)piperidin-3-yl]-1H-benzimidazole-2-carboxamide dihydrochloride]",,89,
"COCCCCn1c(C(=O)N(CC(C)C)[C@@H]2CNC[C@H](C(O)COC)C2)nc2ccccc21 (stereo partly drawn) [Example 48, N-[(3S,5R)-5-(1-hydroxy-2-methoxyethyl)piperidin-3-yl]-1-(4-methoxybutyl)-N-(2-methylpropyl)-1H-benzimidazole-2-carboxamide dihydrochloride]",97,78,
"N-{(3S, 5R)-5-[(1S)-1-hydroxypropyl]piperidin-5-yl}-1-(4-methoxybutyl)-N-(2-methylpropyl)-1H-benzimidazole-2-carboxamide dihydrochloride [Example 75-1]",,,"Macaca fascicularis plasma renin activity, PPA inhibitory activity (%, n = 3-7) (plasma renin activity): 86%; Human renin inhibitory activity, inhibitory activity (%) at 0.1 μM (Human renin): 95%"
"N-{(3S, 5R)-5-[(1R)-1-hydroxypropyl]piperidin-5-yl}-1-(4-methoxybutyl)-N-(2-methylpropyl)-1H-benzimidazole-2-carboxamide dihydrochloride [Example 75-2]",,,"Macaca fascicularis plasma renin activity, PPA inhibitory activity (%, n = 3-7) (plasma renin activity): 71%; Human renin inhibitory activity, inhibitory activity (%) at 0.1 μM (Human renin): 90%"
"COCCCCn1c(C(=O)N(CC(C)C)[C@@H]2CNC[C@H](C(N)=O)C2)nc2ccccc21 [Example 25, N-[(3S,5R)-5-carbamoylpiperidin-3-yl]-1-(4-methoxybutyl)-N-(2-methylpropyl)-1H-benzimidazole-2-carboxamide dihydrochloride]",98,79,
"COCCCCn1c(C(=O)N(CC(C)C)[C@@H]2CNC[C@H](C(C)O)C2)nc2ccccc21 (stereo partly drawn) [Example 42, N-[(3S,5R)-5-(1-hydroxyethyl)piperidin-3-yl]-1-(4-methoxybutyl)-N-(2-methylpropyl)-1H-benzimidazole-2-carboxamide dihydrochloride]",,70,
"COCCOCc1c(C(=O)N(CC(C)C)[C@@H]2CNC[C@H](C(=O)N3CCOCC3)C2)nc2ccccn12 [Example 4, 3-[(2-methoxyethoxy)methyl]-N-(2-methylpropyl)-N-[(3S,5R)-5-(morpholin-4-ylcarbonyl)piperidin-3-yl]imidazo[1,2-a]pyridine-2-carboxamide dihydrochloride]",96,,
"COCCCCn1c(C(=O)N(CC(C)C)[C@@H]2CNC[C@H](C(=O)O)C2)nc2ccccc21 [Example 33, (3R,5S)-5-[{[1-(4-methoxybutyl)-1H-benzimidazol-2-yl]carbonyl}(2-methylpropyl)amino]piperidine-3-carboxylic acid dihydrochloride]",,77,
"CCC(O)[C@H]1CNC[C@@H](N(CC(C)C)C(=O)c2nc3ccccc3n2CCCCOC)C1 (stereo partly drawn) [Example 76, N-[(3S, 5R)-5-(1-hydroxypropyl)piperidin-3-yl]-1-(4-methoxybutyl)-N-(2-methylpropyl)-1H-benzimidazole-2-carboxamide dihydrochloride]",,79,
"CCCN(C(=O)c1nc2ccccc2n1CCCCOC)[C@@H]1CNC[C@H](C(=O)N2CCOCC2)C1 [Example 255, 1-(4-methoxybutyl)-N-[(3S,5R)-5-(morpholin-4-ylcarbonyl)piperidin-3-yl]-N-propyl-1H-benzimidazole-2-carboxamide dihydrochloride]",,84,
"COCCCCn1c(C(=O)N(CC(C)C)[C@@H]2CNC[C@H](C(C)(C)O)C2)nc2ccccc21 [Example 38, N-[(3S,5R)-5-(1-hydroxy-1-methylethyl)piperidin-3-yl]-1-(4-methoxybutyl)-N-(2-methylpropyl)-1H-benzimidazole-2-carboxamide dihydrochloride]",98,,
"COCCCCn1c(C(=O)N(CC(C)C)[C@@H]2CNC[C@H](CO)C2)nc2ccccc21 [Example 40, N-[(3S,5R)-5-(hydroxymethyl)piperidin-3-yl]-1-(4-methoxybutyl)-N-(2-methylpropyl)-1H-benzimidazole-2-carboxamide dihydrochloride]",97,75,
"COCCCn1c(C(=O)N(CC(C)C)[C@@H]2CNC[C@H](C(=O)N3CCOCC3)C2)nc2ccccc21 [Example 85, 1-(3-methoxypropyl)-N-(2-methylpropyl)-N-[(3S, 5R)-5-(morpholin-4-ylcarbonyl)piperidin-3-yl]-1H-benzimidazole-2-carboxamide 1/2 sulfate]",97,,
"COCCCCn1c(C(=O)N(CC(C)C)[C@@H]2CNC[C@H](C(=O)N3CCOCC3)C2)nc2ccccc21 [Example 49, 1-(4-methoxybutyl)-N-(2-methylpropyl)-N-[(3S,5R)-5-(morpholin-4-ylcarbonyl)piperidin-3-yl]-1H-benzimidazole-2-carboxamide methanesulfonate]",97,,
"COCCCCn1c(C(=O)N(CC(C)C)[C@@H]2CNC[C@H]([C@H](O)COC)C2)nc2ccccc21 [Example 73-2, N-{(3S,5R)-5-[(1S)-1-hydroxy-2-methoxyethyl]piperidin-3-yl}-1-(4-methoxybutyl)-N-(2-methylpropyl)-1H-benzimidazole-2-carboxamide dihydrochloride]",96,90,
"COCCCCn1c(C(=O)N(CC2CC2)[C@@H]2CNC[C@H](C(=O)N3CCOCC3)C2)nc2ccccc21 [Example 253, N-(cyclopropylmethyl)-1-(4-methoxybutyl)-N-[(3S,5R)-5-(morpholin-4-ylcarbonyl)piperidin-3-yl]-1H-benzimidazole-2-carboxamide dihydrochloride]",,77,
"COCCCCn1c(C(=O)N(CC(C)C)[C@@H]2CNC[C@H](C(=O)N3CCCCC3)C2)nc2ccccc21 [Example 21, 1-(4-methoxybutyl)-N-(2-methylpropyl)-N-[(3S,5R)-5-(piperidin-1-ylcarbonyl)piperidin-3-yl]-1H-benzimidazole-2-carboxamide dihydrochloride]",,85,
"COCCCCc1c(C(=O)N(CC(C)C)[C@@H]2CNC[C@H](C(=O)N3CCOCC3)C2)nnn1-c1ccccc1F [Example 233, 1-(2-fluorophenyl)-5-(4-methoxybutyl)-N-(2-methylpropyl)-N-[(3S,5R)-5-(morpholin-4-ylcarbonyl)piperidin-3-yl]-1H-1,2,3-triazole-4-carboxamide hydrochloride]",97,67,
"COCCCCn1c(C(=O)N(CC(C)C)[C@@H]2CNC[C@H](C(=O)N3CCCC3)C2)nc2ccc(OC)cc21 [Example 62, 6-methoxy-1-(4-methoxybutyl)-N-(2-methylpropyl)-N-{(3S,5R)-5-(pyrrolidin-1-ylcarbonyl)piperidin-3-yl}-1H-benzimidazole-2-carboxamide dihydrochloride]",,75,
"COCCCCn1c(C(=O)N(CC(C)C)[C@@H]2CNC[C@H](C(=O)OCc3oc(=O)oc3C)C2)nc2ccccc21 [Example 7, (5-methyl-2-oxo-1,3-dioxol-4-yl)methyl (3R,5S)-5-[{[1-(4-methoxybutyl)-1H-benzimidazol-2-yl]carbonyl}(2-methylpropyl)amino]piperidine-3-carboxylate dihydrochloride]",,93,
"CC(C)CN(C(=O)c1nc2ccccn2c1COc1ccccc1)[C@@H]1CNC[C@H](C(=O)N2CCOCC2)C1 [Example 117, N-(2-methylpropyl)-N-[(3S, 5R)-5-(morpholin-4-ylcarbonyl)piperidin-3-yl]-3-(phenoxymethyl)imidazo[1,2-a]pyridine-2-carboxamide dihydrochloride]",98,,
"COCCCCn1c(C(=O)N(CC(C)C)[C@@H]2CNC[C@H](C(=O)N3CCOCC3)C2)nc2ccc(F)cc21 [Example 11, 6-fluoro-1-(4-methoxybutyl)-N-(2-methylpropyl)-N-[(3S,5R)-5-(morpholin-4-ylcarbonyl)piperidin-3-yl]-1H-benzimidazole-2-carboxamide dihydrochloride]",,89,

# Reference: patent US8664380B2, “Heterocyclic compound and use thereof” (Takeda Pharmaceutical Company Limited, priority 2008, dated 2014)
